# Laboratory results reported in US20100216767A1, “QUINAZOLINES FOR PDK1 INHIBITION” (priority 2006, published 2010).
# Biological target: T1, PDK1 kinase (Homo sapiens, UniProt O15530)
# T1 sequence (O15530 1-556): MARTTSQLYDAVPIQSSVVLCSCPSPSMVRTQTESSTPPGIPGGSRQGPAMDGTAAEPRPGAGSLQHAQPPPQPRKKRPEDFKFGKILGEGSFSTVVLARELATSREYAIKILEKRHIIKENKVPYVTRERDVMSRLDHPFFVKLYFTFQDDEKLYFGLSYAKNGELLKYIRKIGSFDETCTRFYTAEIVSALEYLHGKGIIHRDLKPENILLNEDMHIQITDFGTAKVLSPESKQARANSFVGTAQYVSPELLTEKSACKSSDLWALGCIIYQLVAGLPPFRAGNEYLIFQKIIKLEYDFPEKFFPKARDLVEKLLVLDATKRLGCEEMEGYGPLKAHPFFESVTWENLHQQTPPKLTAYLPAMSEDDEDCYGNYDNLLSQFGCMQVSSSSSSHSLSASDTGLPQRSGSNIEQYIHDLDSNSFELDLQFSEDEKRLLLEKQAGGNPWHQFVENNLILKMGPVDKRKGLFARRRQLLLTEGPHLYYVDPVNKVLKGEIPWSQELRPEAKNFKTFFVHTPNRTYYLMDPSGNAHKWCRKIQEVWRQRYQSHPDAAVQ
# Experiment: PDK1 Kinase Alpha Screen Assay
# Assay type: biochemical
# Settings: Table 1; 10 μM ATP, 50 nM PDK1-4 peptide
# Procedure, shortened: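 PDK1 phosphorylation of 50 nM biotinylated PDK1-4 peptide with 10 μM ATP in 50 mM Tris pH 7.5, 10 mM MgCl2, 0.1% BSA, 0.01% Tween-20, 2 mM DTT, 2.5% DMSO, 3-18 h. Stopped with EDTA; phosphopeptide detected by AlphaScreen using phospho-(Ser/Thr) PKA substrate antibody on protein A acceptor and streptavidin donor beads, overnight at room temperature.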
row,SMILES,IC50 [µM]
1,"COc1cc2nc(Nc3ccc(N4CCOCC4)cc3)ncc2cc1-c1cn[nH]c1 [Example 150, 7-methoxy-N-(4-morpholinophenyl)-6-(1H-pyrazol-4-yl)quinazolin-2-amine]",< 5
2,"CC(=O)Nc1cc(CN(C)C)cc(Nc2ncc3cc(Br)cc(Cl)c3n2)c1 [Example 6, N-(3-(6-Bromo-8-chloroquinazolin-2-ylamino)-5-((dimethylamino)-methyl)phenyl)acetamide]",< 5
3,"CC(=O)Nc1cc(CN2CCCC2)cc(Nc2ncc3cc(-c4nccs4)ccc3n2)c1 [Example 126, N-(3-(pyrrolidin-1-ylmethyl)-5-(6-(thiazol-2-yl)quinazolin-2-ylamino)-phenyl)acetamide]",< 5
4,"N#Cc1ccc2nc(Nc3ccc(N4CCOCC4)cc3)ncc2c1 [Example 76, 2-(4-morpholinophenyl-amino)quinazoline-6-carbonitrile]",< 5
5,"C#Cc1ccc2nc(Nc3ccc(C(=O)NC(C)C)cc3)ncc2c1Cl [Example 106, 4-(5-chloro-6-ethynyl-quinazolin-2-ylamino)-N-isopropylbenzamide]",< 5
6,"C#Cc1cc(Cl)c2nc(Nc3cc(CN(C)C)cc(NC(C)=O)c3)ncc2c1 [Example 7, N-(3-(8-Chloro-6-ethynylquinazolin-2-ylamino)-5((dimethylamino)methyl)-phenyl)acetamide]",< 5
7,"C#Cc1cc(OC)c2nc(Nc3ccc(N4CCOCC4)cc3)ncc2c1Cl [Example 101, 5-chloro-6-ethynyl-8-methoxy-N-(4-morpholinophenyl)-quinazolin-2-amine]",< 5
8,"C#Cc1ccc2nc(Nc3ccc(C(=O)N4CCOCC4)cc3)ncc2c1Cl [Example 22, (4-(5-Chloro-6-ethynylquinazolin-2-ylamino)phenyl)(morpholino) methanone]",< 5
9,"C#Cc1ccc2nc(Nc3ccc(N4CCOCC4)c(C(N)=O)c3)ncc2c1 [Example 124, 5-(6-ethynylquinazolin-2-ylamino)-2-morpholino-benzamide]",< 5
10,"C#Cc1cc(Cl)c2nc(Nc3cc(CN4CCOCC4)cc(NC(C)=O)c3)ncc2c1 [Example 129, N-(3-(8-chloro-6-ethynyl-quinazolin-2-ylamino)-5-(morpholinomethyl)-phenyl)-acetamide]",< 5
11,"C#Cc1ccc2nc(Nc3ccc(S(N)(=O)=O)cc3)ncc2c1 [Example 10, 4(6-Ethynylquinazolin-2-ylamino)benzenesulfonamide]",< 5
12,"C#Cc1ccc2nc(Nc3cc(NC(C)=O)cc(NC(C)=O)c3)ncc2c1Cl [Example 130, N,N′-(5-(5-chloro-6-ethynylquinazolin-2-ylamino)-1,3-phenylene-) diacetamide]",< 5
13,"Cc1ccc2nc(Nc3ccc(S(N)(=O)=O)cc3)ncc2c1 [Example 54, 4-(6-methylquinazolin-2-ylamino)benzene-sulfonamide]",< 5
14,"C#Cc1cc2cnc(Nc3ccc(C(=O)N4CCOCC4)cc3)nc2cc1OC [Example 74, (4-(6-ethynyl-7-methoxy-quinazolin-2-ylamino)-phenyl)(morpholino)-methanone]",< 5
15,"C#Cc1ccc2nc(Nc3cc(-c4ccncc4)cc(N4CCOCC4)c3)ncc2c1 [Example 157, 6-ethynyl-N-(3-morpholino-5-(pyridin-4-yl)phenyl)quinazolin-2-amine]",< 5
16,"NS(=O)(=O)c1ccc(Nc2ncc3cc(C(=O)NC4CC4)ccc3n2)cc1 [Example 43, N-cyclopropyl-2-(4-sulfamoylphenylamino)-quinazoline-6-carboxamide]",< 5
17,"C#Cc1ccc2nc(Nc3ccc(N4CCOCC4)cc3)ncc2c1 [Example 57, 6-ethynyl-N-(4-morpholinophenyl)-quinazolin-2-amine]",< 5

row,SMILES,IC50 [µM]
1,"C#Cc1ccc2nc(Nc3cc(-c4cccnc4)cc(N4CCOCC4)c3)ncc2c1 [Example 159, 6-ethynyl-N-(3-morpholino-5-(pyridin-3-yl)phenyl)quinazolin-2-amine]",< 5
2,"NS(=O)(=O)c1ccc(Nc2ncc3cc(-c4cccnc4F)ccc3n2)cc1 [Example 44, 4-(6-(2-fluoropyridin-3-yl)quinazolin-2-ylamino)-benzenesulfonamide]",< 5
3,"C#Cc1cc(OC)c2nc(Nc3ccc(N4CCOCC4)cc3)ncc2c1 [Example 70, 6-ethynyl-8-methoxy-N-(4-morpholinophenyl)-quinazolin-2-amine]",< 5
4,"CCc1cc(OC)c2nc(Nc3ccc(S(N)(=O)=O)cc3)ncc2c1 [Example 3, 4-(6-Ethyl-8-methoxyquinazolin-2-ylamino)benzenesulfonamide]",< 5
5,"C#Cc1ccc2nc(Nc3cc(C#N)cc(CN4CCOCC4)c3)ncc2c1 [Example 152, 3-(6-ethynylquinazolin-2-ylamino)-5-(morpholino-methyl)benzonitrile]",< 5
6,"COc1nc(N)ncc1-c1cc(OC)c2nc(Nc3cc(CN(C)C)cc(NC(C)=O)c3)ncc2c1 [Example 111, N-(3-(6-(2-amino-4-methoxypyrimidin-5-yl)-8-methoxyquinazolin-2-ylamino)-5-((dimethyl-amino)methyl)-phenyl)-acetamide]",5 to 10
7,"C#Cc1cc2cnc(Nc3ccc(C(=O)NC(C)C)cc3)nc2cc1OC [Example 73, 4-(6-ethynyl-7-methoxy-quinazolin-2-ylamino)-N-isopropylbenzamide]",< 5
8,"CC#Cc1ccc2nc(Nc3cc(CN(C)C)cc(NC(C)=O)c3)ncc2c1 [Example 148, N-(3-((dimethylamino)-methyl)-5-(6-(prop-1-ynyl)quinazolin-2-ylamino)phenyl)acetamide]",< 5
9,"CNC(=O)c1ccc2nc(Nc3ccc(S(N)(=O)=O)cc3)ncc2c1 [Example 37, N-methyl-2-(4-sulfamoyl-phenylamino)quinazoline-6-carboxamide]",5 to 10
10,"COc1ncccc1-c1cc(OC)c2nc(Nc3cc(CN(C)C)cc(NC(C)=O)c3)ncc2c1 [Example 94, N-(3-((dimethylamino)-methyl)-5-(8-methoxy-6-(2-methoxypyridin-3-yl)-quinazolin-2-ylamino)-phenyl)acetamide]",5 to 10
11,"CC(=O)Nc1cc(I)cc(Nc2ncc3cc(Br)ccc3n2)c1 [Example 31, N-(3-(6-Bromoquinazolin-2-ylamino)-5-iodophenyl)acetamide]",< 5
12,"C#Cc1cc2cnc(Nc3ccc(-c4nnn[nH]4)cc3)nc2cc1OC [Example 96, N-(4-(1H-tetrazol-5-yl)-phenyl)-6-ethynyl-7-methoxyquinazolin-2-amine]",< 5
13,"C#Cc1ccc2nc(Nc3ccccc3)ncc2c1 [Example 138, 6-ethynyl-N-phenyl-quinazolin-2-amine]",< 5
14,"C#Cc1cc2cnc(Nc3ccc(S(N)(=O)=O)cc3)nc2cc1OC [Example 49, 4-(6-ethynyl-7-methoxy-quinazolin-2-ylamino)-benzenesulfonamide]",< 5
15,"NS(=O)(=O)c1ccc(Nc2ncc3cc(-c4nccs4)ccc3n2)cc1 [Example 27, 4-(6-(Thiazol-2-yl)quinazolin-2-ylamino)benzenesulfonamide]",< 5
16,"COc1cc2nc(Nc3cc(CN4CCOCC4)cc(NC(C)=O)c3)ncc2cc1-c1cn[nH]c1 [Example 175, N-(3-(7-methoxy-6-(1H-pyrazol-4-yl)quinazolin-2-ylamino)-5-(morpholino-methyl)phenyl)acetamide]",< 5
17,"COc1cncc(-c2cc(OC)c3nc(Nc4cc(CN(C)C)cc(NC(C)=O)c4)ncc3c2)n1 [Example 110, N-(3-((dimethylamino)-methyl)-5-(8-methoxy-6-(6-methoxypyrazin-2-yl)quinazolin-2-ylamino)phenyl)acetamide]",< 5
